The source of these data is publication PMC12396559 (Virus Research, 2025).

Bounds are passed on as bounds.

A word on the EC50: it is the concentration needed to bring the measured effect to its halfway point.

For series [1], the system named is MPXV^Zr-599 (Clade I). The experiment in a line: microbe, parasite or virus in culture. It counts as cell-based. As to conditions: Monkeypox virus, Vero C1008, 120 h, read-out: EC50 against MPXV^Zr-599.
Series [2] concerns MPXV^SPL2A7 (Clade IIb). The experiment in a line: microbe, parasite or virus in culture. It counts as cell-based. As to conditions: Monkeypox virus, Vero C1008, 120 h, read-out: EC50 against MPXV^SPL2A7.
Series [3] deals with VeroE6 cells.
Series [4] concerns MPXV^Liberia (Clade IIa). The experiment in a line: microbe, parasite or virus in culture. It counts as cell-based. As to conditions: Monkeypox virus, Vero C1008, 120 h, read-out: EC50 against MPXV^Liberia.
The subject of series [5] is VeroE6 cells. This is another data set of the same source.
Series [6] in a line: in vitro. As to conditions: human.
A short description of series [7]: in vitro. As to conditions: human. The source holds these as a separate data set.
Series [8] concerns MPXV^SPL2A7.
In series [9] the test system is Huh7 cells. As to conditions: for concentration at which the agent showed cytotoxicity, reducing the number of cells: human.
Series [10] deals with clade I mpox. As to conditions: human, in vivo; cited from earlier work.
Series [11] concerns HeLa cells. The following applies: for concentration at which the agent showed cytotoxicity, reducing the number of cells: human.
A short description of series [12]: in vitro. As to conditions: African green monkey.
Series [13] concerns clade II mpox. As to conditions: human, in vivo; cited from earlier work.

As for `Nc1ccn([C@@H]2O[C@H](CO)[C@@H](O)C2(F)F)c(=O)n1` [Gemcitabine, gemcitabine], the figures for the EC50 in [1], in [2] and in [4] were 20 ± 20 nM, 20 ± 20 nM and 10 ± 10 nM, respectively. For the same compound, the “number of cells (DAPI)” value in series [3] is on record as “significant reduction”. The “amount of F-actin (images)” value in [5] is “greatly reduced”. Further, in series [5], the “protein production (F-actin quantification), in words” value (“protein production … in words” below) is reported as “totally blocked”.
Regarding `O=C(NN1C(=O)[C@@H]2[C@@H]3C=C[C@@H]([C@H]4C[C@@H]34)[C@@H]2C1=O)c1ccc(C(F)(F)F)cc1` [Tecovirimat, tecovirimat], the CC50 in [6], in series [7] and in series [12] was greater than 100000 nM each time. Moreover, the EC50 amounted to 5 ± 1 nM in series [1], 1 ± 2 nM in [2] and 4 ± 2 nM in series [4]. Also, the “concentration at which production of virally-encoded proteins was blocked (and above)” value in series [8] is recorded as no less than 0.01 µM. The “number of the cells (nuclei stained with DAPI)” value in series [8] was “no significant reduction”. The “cytostaticity and/or cytotoxicity (in words)” value in series [9] and in [11] was “without cytostaticity and/or cytotoxicity” in each case. Moreover, the “duration of mpox lesions” value in series [10] is recorded as “failed to shorten the duration of mpox lesions”. Besides, in [13], the clinical efficacy result is “no significant efficacy”. In addition, in [5], the “suppression of protein production (F-actin quantification)” value is reported as “about 50%”.
On to `Nc1ccn(C[C@@H](CO)OCP(=O)(O)O)c(=O)n1` [Cidofovir, cidofovir], for which the CC50 in [6] and in [7] was greater than 100000 nM in each case. For the same compound, the EC50 was found to be 17300 ± 5030 nM in series [1], 12200 ± 1190 nM in series [2] and 15200 ± 3020 nM in series [4]. The “concentration at which the agent showed cytotoxicity, reducing the number of cells” value in series [9] and in [11] was 100 µM each time. The “cell number on day 5 subtracted with cell number on Day 0” value in [3] was “below zero”. Besides, the “protein production … in words” value in series [5] is recorded as “virtually totally blocked”.
For `O=c1[nH]c(=O)n([C@H]2C[C@H](O)[C@@H](CO)O2)cc1C(F)(F)F` [Trifluridine, trifluridine], the EC50 in series [1] came to 3710 ± 1450 nM; in series [2] it was 6170 ± 1260 nM; in series [4] it was 3480 ± 1820 nM.
As for `CCCCCCCCCCCCCCCCOCCCOP(=O)(O)CO[C@H](CO)Cn1ccc(N)nc1=O` [Brincidofovir, brincidofovir], the figures for the EC50 in [1], in [2] and in series [4] were 2130 ± 950 nM, 2030 ± 320 nM and 2010 ± 850 nM, respectively. Besides, the “concentration at which the agent showed cytotoxicity, reducing the number of cells” value in [9] and in series [11] was 10 to 100 µM each time. Also, the “cell number on day 5 subtracted with cell number on Day 0” value in series [3] is listed as “below zero”. The “amount of F-actin (images)” value in [5] is on record as “markedly reduced”. In addition, the “protein production … in words” value in [5] is recorded as “virtually totally blocked”.
